# Test results from ChEMBL document CHEMBL1201862, “PubChem BioAssay data set” (2004).
# Activity calls are given as the source filed them.
# Key:
# [1] = molecular target: Genome polyprotein (Hepatitis C virus, UniProt Q2Q167); experiment: disruption of hepatitis C core self-association – biochemical, TR-FRET, dose response (AID 2159); parameters: species or system Hepacivirus hominis;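 note: blocks dimerization of HCV core protein measured by TR-FRET between tagged core106 pairs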
# [2] = molecular target: T1, SUMO-activating enzyme (Homo sapiens, UniProt Q9UBT2); experiment: blockers of UBC9-mediated SUMO conjugation – biochemical, AlphaScreen, SUMOylation inhibitor project, confirmation (AID 2018); type: functional
# T1 sequence (Q9UBE0 whole entry): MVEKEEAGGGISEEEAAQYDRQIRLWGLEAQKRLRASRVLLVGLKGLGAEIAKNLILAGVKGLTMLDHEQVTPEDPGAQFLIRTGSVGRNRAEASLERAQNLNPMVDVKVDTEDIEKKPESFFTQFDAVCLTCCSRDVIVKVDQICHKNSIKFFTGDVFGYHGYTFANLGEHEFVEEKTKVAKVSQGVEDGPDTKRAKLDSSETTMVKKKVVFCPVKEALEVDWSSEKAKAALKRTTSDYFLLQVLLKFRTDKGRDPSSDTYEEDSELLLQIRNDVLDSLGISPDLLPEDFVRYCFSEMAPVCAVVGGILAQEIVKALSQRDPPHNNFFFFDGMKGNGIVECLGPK
# T1 sequence (Q9UBT2 whole entry): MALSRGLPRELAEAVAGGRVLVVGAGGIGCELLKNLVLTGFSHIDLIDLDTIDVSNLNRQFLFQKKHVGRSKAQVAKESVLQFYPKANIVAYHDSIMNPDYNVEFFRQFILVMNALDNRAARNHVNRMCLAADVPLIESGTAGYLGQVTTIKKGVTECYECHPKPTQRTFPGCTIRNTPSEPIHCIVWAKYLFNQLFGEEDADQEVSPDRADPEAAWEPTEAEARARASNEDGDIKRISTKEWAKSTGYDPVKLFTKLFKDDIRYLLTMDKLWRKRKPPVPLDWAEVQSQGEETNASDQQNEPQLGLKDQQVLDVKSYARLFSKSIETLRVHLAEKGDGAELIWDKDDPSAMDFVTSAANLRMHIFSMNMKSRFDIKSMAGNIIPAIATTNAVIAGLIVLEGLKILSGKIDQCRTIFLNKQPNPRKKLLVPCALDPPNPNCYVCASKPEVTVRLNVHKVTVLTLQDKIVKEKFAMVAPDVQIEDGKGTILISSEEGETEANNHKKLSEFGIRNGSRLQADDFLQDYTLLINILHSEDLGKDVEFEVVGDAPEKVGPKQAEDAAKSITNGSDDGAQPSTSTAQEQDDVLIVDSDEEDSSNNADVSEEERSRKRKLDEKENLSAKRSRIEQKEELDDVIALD
# [3] = molecular target: T2, Voltage-gated N-type calcium channel alpha-1B subunit/Amyloid beta A4 precursor protein-binding family A member 1 (Homo sapiens, UniProt Q00975+Q02410); type: protein assay
# T2 sequence (Q00975 whole entry): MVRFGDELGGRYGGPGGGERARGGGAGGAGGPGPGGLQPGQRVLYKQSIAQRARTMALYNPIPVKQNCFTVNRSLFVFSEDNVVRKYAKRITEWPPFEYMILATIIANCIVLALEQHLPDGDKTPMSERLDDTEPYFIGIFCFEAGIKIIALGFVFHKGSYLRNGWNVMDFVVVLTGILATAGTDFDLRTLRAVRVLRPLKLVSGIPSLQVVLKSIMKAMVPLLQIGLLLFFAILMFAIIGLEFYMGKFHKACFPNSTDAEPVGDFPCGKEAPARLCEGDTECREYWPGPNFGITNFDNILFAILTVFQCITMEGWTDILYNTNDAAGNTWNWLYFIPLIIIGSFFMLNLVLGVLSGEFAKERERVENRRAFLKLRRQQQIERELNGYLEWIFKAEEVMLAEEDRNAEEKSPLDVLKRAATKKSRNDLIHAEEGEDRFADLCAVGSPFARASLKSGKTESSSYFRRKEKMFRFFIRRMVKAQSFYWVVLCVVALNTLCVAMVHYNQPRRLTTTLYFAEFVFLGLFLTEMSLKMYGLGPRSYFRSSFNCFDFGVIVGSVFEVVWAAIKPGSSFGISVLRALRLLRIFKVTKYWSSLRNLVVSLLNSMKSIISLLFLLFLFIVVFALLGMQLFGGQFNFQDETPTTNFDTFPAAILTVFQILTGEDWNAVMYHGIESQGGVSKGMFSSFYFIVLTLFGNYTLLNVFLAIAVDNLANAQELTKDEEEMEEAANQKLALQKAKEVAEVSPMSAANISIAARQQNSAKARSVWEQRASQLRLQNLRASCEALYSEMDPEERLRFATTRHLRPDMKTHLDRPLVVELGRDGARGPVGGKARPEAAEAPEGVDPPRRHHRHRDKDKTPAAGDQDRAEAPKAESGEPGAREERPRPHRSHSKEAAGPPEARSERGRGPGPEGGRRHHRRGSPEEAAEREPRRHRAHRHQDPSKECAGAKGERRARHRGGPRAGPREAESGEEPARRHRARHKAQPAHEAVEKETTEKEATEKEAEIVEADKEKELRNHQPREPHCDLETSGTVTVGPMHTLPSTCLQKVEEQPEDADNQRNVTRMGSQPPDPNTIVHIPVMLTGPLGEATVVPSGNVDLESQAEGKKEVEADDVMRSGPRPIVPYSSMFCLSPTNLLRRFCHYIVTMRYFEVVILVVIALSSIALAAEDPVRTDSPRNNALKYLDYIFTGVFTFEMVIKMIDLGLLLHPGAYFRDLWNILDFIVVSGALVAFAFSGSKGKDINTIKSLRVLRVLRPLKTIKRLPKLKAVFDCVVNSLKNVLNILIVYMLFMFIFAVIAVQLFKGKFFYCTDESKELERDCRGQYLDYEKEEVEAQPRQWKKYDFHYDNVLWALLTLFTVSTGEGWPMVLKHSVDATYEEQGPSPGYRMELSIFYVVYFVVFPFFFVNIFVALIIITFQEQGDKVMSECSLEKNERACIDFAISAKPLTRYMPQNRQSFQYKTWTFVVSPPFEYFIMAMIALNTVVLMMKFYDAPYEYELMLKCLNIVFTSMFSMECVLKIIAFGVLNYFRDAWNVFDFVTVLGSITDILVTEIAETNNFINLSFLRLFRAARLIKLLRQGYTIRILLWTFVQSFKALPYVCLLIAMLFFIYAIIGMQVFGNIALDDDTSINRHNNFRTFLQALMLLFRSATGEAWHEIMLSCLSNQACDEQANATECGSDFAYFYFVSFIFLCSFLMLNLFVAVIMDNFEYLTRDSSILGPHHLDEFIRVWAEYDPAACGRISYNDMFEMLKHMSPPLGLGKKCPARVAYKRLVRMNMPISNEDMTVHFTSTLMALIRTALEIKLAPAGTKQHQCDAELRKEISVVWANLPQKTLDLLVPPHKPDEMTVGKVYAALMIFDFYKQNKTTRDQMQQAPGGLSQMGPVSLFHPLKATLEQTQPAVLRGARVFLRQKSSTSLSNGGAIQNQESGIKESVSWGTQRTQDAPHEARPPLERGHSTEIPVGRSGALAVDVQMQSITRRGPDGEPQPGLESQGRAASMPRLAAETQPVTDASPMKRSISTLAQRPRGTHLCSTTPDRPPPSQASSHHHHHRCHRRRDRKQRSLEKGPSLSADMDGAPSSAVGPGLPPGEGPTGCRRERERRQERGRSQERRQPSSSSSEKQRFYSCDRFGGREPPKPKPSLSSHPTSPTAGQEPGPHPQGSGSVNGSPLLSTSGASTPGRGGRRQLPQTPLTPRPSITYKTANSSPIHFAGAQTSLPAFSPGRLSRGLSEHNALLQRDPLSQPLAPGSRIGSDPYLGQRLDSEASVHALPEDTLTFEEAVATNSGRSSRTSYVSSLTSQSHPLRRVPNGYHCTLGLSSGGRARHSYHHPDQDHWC
# T2 sequence (Q02410 whole entry): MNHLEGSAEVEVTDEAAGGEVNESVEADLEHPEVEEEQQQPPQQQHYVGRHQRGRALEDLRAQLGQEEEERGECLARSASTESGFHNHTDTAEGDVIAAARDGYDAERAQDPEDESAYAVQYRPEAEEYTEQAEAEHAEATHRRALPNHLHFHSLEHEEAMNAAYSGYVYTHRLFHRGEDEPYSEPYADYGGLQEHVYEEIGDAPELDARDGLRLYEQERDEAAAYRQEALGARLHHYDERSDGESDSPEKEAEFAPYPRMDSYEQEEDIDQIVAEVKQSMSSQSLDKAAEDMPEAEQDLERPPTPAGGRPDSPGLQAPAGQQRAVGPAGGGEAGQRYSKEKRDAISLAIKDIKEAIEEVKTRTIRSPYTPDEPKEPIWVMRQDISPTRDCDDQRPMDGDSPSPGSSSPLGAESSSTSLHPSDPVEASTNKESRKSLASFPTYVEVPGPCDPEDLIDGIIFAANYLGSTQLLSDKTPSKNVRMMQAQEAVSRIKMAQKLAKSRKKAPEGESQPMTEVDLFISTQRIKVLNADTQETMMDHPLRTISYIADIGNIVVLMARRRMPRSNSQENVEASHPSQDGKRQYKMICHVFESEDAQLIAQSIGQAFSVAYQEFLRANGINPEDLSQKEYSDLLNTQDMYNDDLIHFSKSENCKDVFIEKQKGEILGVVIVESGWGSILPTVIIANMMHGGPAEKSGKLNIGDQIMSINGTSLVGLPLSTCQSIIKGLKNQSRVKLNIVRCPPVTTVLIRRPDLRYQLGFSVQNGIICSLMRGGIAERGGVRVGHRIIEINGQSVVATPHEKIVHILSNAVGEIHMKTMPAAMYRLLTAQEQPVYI
# [4] = molecular target: T1, SUMO-activating enzyme; experiment: blockers of SAE1/SAE2–UBC9 SUMO transfer – biochemical, HTRF, uHTS, primary screen (AID 2006); type: protein-complex assay
# [5] = molecular target: T2, Voltage-gated N-type calcium channel alpha-1B subunit/Amyloid beta A4 precursor protein-binding family A member 1; type: protein assay; remark: listed apart in the source
# [6] = molecular target: Paired box protein Pax-8 (Homo sapiens, UniProt Q06710); experiment: PAX8 transcriptional activity inhibition in RMG-I – RMG-I cells, luciferase, cherry-pick, dose response (AID 687027); type: functional, cell-based;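 note: luciferase reporter driven by Pax8 target thyroperoxidase promoter measured by SteadyGlo luminescence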
# [7] = molecular target: Troponin, cardiac muscle (Homo sapiens, UniProt P19429+P45379+P63316); experiment: compounds desensitizing RTF to calcium – biochemical, fluorescence, cardiac regulated thin filaments, triplicate IC50, dose response (AID 504742); type: protein-complex assay
# [8] = molecular target: T3, Histone-lysine N-methyltransferase NSD2 (Homo sapiens, UniProt O96028); type: biochemical
# T3 sequence (O96028 whole entry): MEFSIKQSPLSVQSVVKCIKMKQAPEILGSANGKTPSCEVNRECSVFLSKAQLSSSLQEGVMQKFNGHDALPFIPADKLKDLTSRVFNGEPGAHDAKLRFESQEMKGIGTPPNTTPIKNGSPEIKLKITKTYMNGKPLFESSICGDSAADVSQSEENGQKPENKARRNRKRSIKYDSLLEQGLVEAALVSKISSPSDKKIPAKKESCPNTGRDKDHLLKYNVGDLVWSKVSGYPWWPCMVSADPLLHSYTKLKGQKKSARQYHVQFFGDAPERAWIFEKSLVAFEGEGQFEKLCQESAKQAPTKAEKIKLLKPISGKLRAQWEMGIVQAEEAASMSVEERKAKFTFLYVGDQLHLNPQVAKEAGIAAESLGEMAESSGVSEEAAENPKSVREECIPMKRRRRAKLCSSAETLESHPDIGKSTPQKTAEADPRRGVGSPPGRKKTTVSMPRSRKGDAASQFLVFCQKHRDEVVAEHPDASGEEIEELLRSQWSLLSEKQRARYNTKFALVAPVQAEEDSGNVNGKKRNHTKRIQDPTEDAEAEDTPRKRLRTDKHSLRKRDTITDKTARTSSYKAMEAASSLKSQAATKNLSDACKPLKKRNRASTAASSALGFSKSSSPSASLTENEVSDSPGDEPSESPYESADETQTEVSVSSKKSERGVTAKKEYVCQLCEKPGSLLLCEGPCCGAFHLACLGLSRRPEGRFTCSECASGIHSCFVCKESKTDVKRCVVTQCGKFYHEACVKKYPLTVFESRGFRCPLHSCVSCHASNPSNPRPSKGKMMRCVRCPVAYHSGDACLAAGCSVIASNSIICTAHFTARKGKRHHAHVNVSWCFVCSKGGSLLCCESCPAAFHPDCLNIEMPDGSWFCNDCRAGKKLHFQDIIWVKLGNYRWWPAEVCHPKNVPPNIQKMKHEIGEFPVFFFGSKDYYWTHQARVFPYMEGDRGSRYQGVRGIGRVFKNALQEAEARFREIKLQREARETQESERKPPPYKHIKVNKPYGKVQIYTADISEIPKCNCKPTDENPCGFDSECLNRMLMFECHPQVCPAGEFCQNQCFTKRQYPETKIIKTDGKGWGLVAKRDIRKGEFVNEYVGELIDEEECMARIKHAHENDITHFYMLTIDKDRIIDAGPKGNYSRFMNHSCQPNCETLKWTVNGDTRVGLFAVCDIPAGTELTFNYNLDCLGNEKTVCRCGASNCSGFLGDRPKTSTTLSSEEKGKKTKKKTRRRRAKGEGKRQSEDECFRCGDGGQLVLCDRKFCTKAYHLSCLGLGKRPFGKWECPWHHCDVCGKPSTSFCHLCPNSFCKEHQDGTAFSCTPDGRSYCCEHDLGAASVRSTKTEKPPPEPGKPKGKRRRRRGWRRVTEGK
# [9] = test system: Streptococcus sp. 'group A'; experiment: Streptococcus pyogenes SK(-)GAS viability under kanamycin – luminescence, BacTiterGlo, confirmation, counter-screen for streptokinase expression inhibitor project, dose response (AID 1900); type: functional, organism-based
# [10] = molecular target: T4, Streptokinase A (Streptococcus pyogenes serotype M1, UniProt P10520); experiment: viability-normalized secreted streptokinase activity reduction – plasminogen activation absorbance, OD405, dose response (AID 1914); type: functional, Streptococcus pyogenes M1 GAS;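 note: secreted streptokinase activity via plasminogen activation per viability signal from cell pellet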
# T4 sequence (P10520 whole entry): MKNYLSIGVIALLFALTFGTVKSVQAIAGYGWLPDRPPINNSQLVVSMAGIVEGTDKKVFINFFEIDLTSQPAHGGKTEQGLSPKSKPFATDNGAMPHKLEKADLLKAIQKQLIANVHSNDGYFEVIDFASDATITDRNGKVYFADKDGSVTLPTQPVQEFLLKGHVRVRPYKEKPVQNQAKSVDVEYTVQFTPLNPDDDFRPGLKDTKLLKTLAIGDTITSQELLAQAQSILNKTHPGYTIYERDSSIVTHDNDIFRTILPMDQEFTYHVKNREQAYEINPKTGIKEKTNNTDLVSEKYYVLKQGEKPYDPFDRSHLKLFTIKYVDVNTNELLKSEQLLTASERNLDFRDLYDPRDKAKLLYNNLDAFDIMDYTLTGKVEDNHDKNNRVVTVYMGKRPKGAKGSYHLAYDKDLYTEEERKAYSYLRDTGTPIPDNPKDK
# [11] = test system: Streptococcus; experiment: GAS UMAA2166 growth inhibition – luminescence, BacTiterGlo, counter-screen for streptokinase expression inhibitor project, dose response (AID 1915); type: functional, organism-based;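 note: potency for reduction of bacterial viability or growth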
# [12] = molecular target: DNA dC->dU-editing enzyme APOBEC-3A (Homo sapiens, UniProt P31941); experiment: A3A deaminase inhibition for selectivity – biochemical, dose response (AID 504722); type: functional
# [13] = molecular target: DNA dC->dU-editing enzyme APOBEC-3G (Homo sapiens, UniProt Q9HC16); experiment: Dose Response confirmation of small molecule APOBEC3G DNA Deaminase Inhibitors via a fluorescence-based single-stranded DNA deaminase assay. [Related pubchem assays (depositor defined):AID493012, AID493028]; type: functional
# [14] = molecular target: Mu-type opioid receptor (Homo sapiens, UniProt P35372); experiment: SAR Analysis of Antagonists of the MOR Receptor using an Image-Based Assay - Set 3. [Related pubchem assays (depositor defined):AID1777, AID1785, AID1786, AID1966, AID2133, AID2136, AID2284, AID2285, AID2420]; type: functional
# [15] = molecular target: Delta-type opioid receptor (Homo sapiens, UniProt P41143); experiment: SAR Analysis of Antagonists of the DOR Receptor using an Image-Based Assay - Set 3. [Related pubchem assays (depositor defined):AID1777, AID1785]; type: functional;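 note: U2OS cells expressing DOR1 and beta-arrestin GFP stimulated with 100 nM SNC80; imaging of GFP-tagged beta-arrestin moving into spots after receptor activation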
# Sequence of Delta-type opioid receptor (P41143 whole entry): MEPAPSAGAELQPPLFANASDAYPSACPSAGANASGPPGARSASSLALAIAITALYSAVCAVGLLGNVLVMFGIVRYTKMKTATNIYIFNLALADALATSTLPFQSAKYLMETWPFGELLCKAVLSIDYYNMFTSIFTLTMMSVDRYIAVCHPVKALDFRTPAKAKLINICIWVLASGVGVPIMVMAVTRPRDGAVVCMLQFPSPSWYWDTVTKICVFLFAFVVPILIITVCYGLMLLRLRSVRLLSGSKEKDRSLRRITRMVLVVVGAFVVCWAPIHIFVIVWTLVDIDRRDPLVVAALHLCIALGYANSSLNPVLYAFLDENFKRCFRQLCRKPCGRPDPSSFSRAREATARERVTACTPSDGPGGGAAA
# [16] = molecular target: T5, Kappa-type opioid receptor (Homo sapiens, UniProt P41145); experiment: SAR analysis of small molecule antagonists of the kappa opioid receptor via a luminescent beta-arrestin assay - Set 3. [Related pubchem assays (depositor defined):AID1777, AID1778, AID1785, AID1786, AID1966, AID2133, AID2136, AID2285, AID2495]; type: functional
# T5 sequence (P41145 whole entry): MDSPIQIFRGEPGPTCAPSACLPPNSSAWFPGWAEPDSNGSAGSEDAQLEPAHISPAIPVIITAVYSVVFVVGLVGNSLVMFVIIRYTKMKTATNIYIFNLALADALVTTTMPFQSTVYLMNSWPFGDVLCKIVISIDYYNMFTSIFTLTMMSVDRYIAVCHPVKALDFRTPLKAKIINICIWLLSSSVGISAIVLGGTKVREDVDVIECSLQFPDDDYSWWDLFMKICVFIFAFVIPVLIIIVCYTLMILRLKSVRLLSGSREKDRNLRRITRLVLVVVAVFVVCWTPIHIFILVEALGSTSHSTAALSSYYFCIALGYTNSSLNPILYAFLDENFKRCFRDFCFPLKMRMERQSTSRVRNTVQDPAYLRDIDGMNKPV
# [17] = molecular target: T5, Kappa-type opioid receptor; experiment: SAR analysis of Antagonists of the Kappa Opioid Receptor (KOR) using an Image-Based Assay - Set 3. [Related pubchem assays (depositor defined):AID1777, AID1785]; type: functional
# [18] = molecular target: T6, Caspase-3 (Homo sapiens, UniProt P42574); experiment: activation of caspase-3 zymogen – biochemical, absorbance, dose response (AID 489014)
# T6 sequence (P42574 whole entry): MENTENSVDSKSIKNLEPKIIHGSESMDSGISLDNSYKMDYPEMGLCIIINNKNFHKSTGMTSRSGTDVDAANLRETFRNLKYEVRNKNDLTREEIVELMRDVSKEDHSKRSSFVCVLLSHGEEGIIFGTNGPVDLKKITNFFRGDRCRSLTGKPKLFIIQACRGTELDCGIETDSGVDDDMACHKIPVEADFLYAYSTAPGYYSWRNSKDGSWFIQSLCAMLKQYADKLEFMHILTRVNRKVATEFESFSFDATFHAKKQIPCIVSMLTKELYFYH
# [19] = molecular target: Caspase-7 (Homo sapiens, UniProt P55210); experiment: activation of caspase-7 zymogen – biochemical, absorbance, counter-screen for procaspase-3 activator project, dose response (AID 489013)
# [20] = molecular target: G-protein coupled receptor 35 (Homo sapiens, UniProt Q9HC97); experiment: inhibition of zaprinast-stimulated GPR35 beta-arrestin translocation – imaging, U2OS, beta-arrestin-GFP, zaprinast agonist, primary screen (AID 2058); type: functional;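 note: antagonist potency meaning inhibition of agonist-induced arrestin redistribution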
# [21] = molecular target: E3 ubiquitin-protein ligase Mdm2/Protein Mdm4 (Homo sapiens, UniProt O15151+Q00987); experiment: disruption of Mdm2/MdmX protein binding – luminescence detection, dose response (AID 504593); type: functional
# [22] = molecular target: T7, Microphthalmia-associated transcription factor (Homo sapiens, UniProt O75030); experiment: reducers of TRPM1 reporter luminescence, concentration series – cell-based, SK-MEL-5, cherry-picked, set 3, MITF inhibitor project, dose response (AID 493073); type: functional;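 note: SK-MEL-5 melanoma cells with luciferase driven by the MITF target TRPM1 promoter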
# T7 sequence (O75030 whole entry): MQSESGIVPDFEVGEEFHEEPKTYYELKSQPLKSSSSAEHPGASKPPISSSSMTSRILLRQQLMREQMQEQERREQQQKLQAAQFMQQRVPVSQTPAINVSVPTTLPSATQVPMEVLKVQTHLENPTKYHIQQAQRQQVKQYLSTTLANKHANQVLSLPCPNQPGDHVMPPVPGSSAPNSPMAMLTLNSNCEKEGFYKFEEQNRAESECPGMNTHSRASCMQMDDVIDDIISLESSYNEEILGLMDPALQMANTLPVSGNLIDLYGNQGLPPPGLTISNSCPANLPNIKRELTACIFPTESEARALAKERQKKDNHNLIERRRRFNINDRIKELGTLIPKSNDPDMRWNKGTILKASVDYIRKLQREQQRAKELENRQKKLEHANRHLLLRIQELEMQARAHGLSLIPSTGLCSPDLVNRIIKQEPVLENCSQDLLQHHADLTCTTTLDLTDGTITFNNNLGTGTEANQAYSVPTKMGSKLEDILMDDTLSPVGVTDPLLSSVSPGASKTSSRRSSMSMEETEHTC
# [23] = test system: A-375; experiment: proliferation inhibition in MITF-low A375 cells – cell-based, cherry-pick samples, set 2, counter-screen for MITF modulator project, dose response (AID 540335); type: functional; settings: Homo sapiens
# [24] = molecular target: T5, Kappa-type opioid receptor; experiment: SAR analysis of small molecule antagonists of the kappa opioid receptor via a luminescent beta-arrestin assay - Set 6. [Related pubchem assays (depositor defined):AID1777, AID1778, AID1785, AID1786, AID1966, AID2133, AID2136, AID2285]; type: functional
# [25] = molecular target: T5, Kappa-type opioid receptor; experiment: SAR analysis of small molecule antagonists of the kappa opioid receptor via a luminescent beta-arrestin assay - Set 4. [Related pubchem assays (depositor defined):AID1777, AID1778, AID1785, AID1786, AID1966, AID2133, AID2136, AID2285]; type: functional
# [26] = molecular target: T5, Kappa-type opioid receptor; experiment: SAR analysis of Antagonists of the Kappa Opioid Receptor (KOR) using an Image-Based Assay - Set 4. [Related pubchem assays (depositor defined):AID1777, AID1785]; type: functional
# Sequence of Genome polyprotein (Q2Q167 whole entry): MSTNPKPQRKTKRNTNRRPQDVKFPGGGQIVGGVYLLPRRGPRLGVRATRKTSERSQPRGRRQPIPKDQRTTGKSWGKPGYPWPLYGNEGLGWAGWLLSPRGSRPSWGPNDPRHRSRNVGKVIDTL
smiles,measurement,setting,value
COc1ccc(-c2nc3c(c(SCC(=O)Nc4cccc(O)c4)n2)Cc2c(CO)cnc(C)c2O3)cc1,IC50,[1],> 49.8 µM (not active)
same,IC50,[2],9.01 µM (active)
same,IC50,[3],28.1 µM (active)
same,IC50,[4],32.8 µM (active)
same,IC50,[5],> 50 µM (inactive)
same,AC50,[6],67.6 µM (active)
CCOc1ccc2nc3cc(N=Nc4ccc(N)nc4N)ccc3c(N)c2c1,IC50,[7],12.7 µM (inactive)
same,AC50,[8],> 20 µM (inactive)
COc1ccc(OC)c(/C=N/n2c(S)nnc2-c2[nH]nc3c2CCC3)c1,EC50,[9],> 150 µM (not active)
same,EC50,[10],18.9 µM (inconclusive)
same,EC50,[11],> 150 µM (not active)
same,IC50,[12],> 100 µM (inactive)
same,IC50,[13],2.88 µM (active)
O=C(Cn1c(=O)c2cccn2c2cccnc21)NCCCN1CCCCC1,IC50,[14],> 32 µM (inactive)
same,IC50,[15],> 32 µM (inactive)
same,IC50,[16],> 20 µM (inactive)
same,IC50,[17],> 32 µM (inactive)
Cc1ccc(C2Nc3ccc4ccccc4c3C3=C2C(=O)CC(C)(C)C3)o1 (stereo not drawn),EC50,[18],> 85.3 µM (inactive)
same,EC50,[19],> 85.3 µM (inactive)
CCN(CC)S(=O)(=O)c1ccc(NC(=O)c2cccnc2Cl)c(NC(=O)c2cccnc2Cl)c1,IC50,[20],8.8 µM (active)
same,IC50,[21],4.18 µM (active)
same,AC50,[22],7.02 µM (active)
same,AC50,[23],23.2 µM (active)
Cc1ccc(S(=O)(=O)NCc2ccc(C(=O)NCCN(Cc3ccccc3)C(C)(C)C)cc2)cc1,IC50,[14],1.39 µM (active)
same,IC50,[24],0.0535 µM (active)
same,IC50,[25],0.0763 µM (active)
same,IC50,[15],> 32 µM (inactive)
same,IC50,[26],0.0287 µM (active)
